Laboratory results published in publication PMC6539809, “Development of Oxygen-Bridged Pyrazole-Based Structures as Cannabinoid Receptor 1 Ligands” (Molecules, 2019).
Where “and” joins values, the source holds several entries; their conditions need not be identical. Equal entries are not always repeated. Where two headings read alike, the source gives them in different places.

Tests used:
CD1 mice = assay: Gastrointestinal transit (GIT), carmine marker; type: in vivo, mouse; conditions: data not shown
Excerpt: The mouse isolated vas deferens is a nerve-smooth muscle preparation that serves as a highly sensitive and quantitative functional in vitro bioassay for cannabinoid CB1R agonists. The effect of CB1 agonists is related to the action on naturally expressed prejunctional neuronal CB1Rs to inhibit release of the contractile neurotransmitters, noradrenaline and ATP, which is provoked by electrical stimulation. It has been shown that CB1 antagonist derivatives are able to block or reduce the inhibition of the electrically evoked contraction amplitude of the vas deferens induced by CB1 agonists, with parallel dextral shifts in CB1R agonist log concentration-response curves in electrically stimulated tissues. According to previous studies concerning cannabinoid agents, a gastrointestinal transit test was adopted to confirm CB1 antagonism. […] Moreover, the capability of CB1 antagonist compounds both to block the constipation effect induced by cannabinoid agonists and to themselves increase themselves gastrointestinal motility has been reported.
The same procedure previously reported by Murineddu et al. was adopted to evaluate the effect of the compounds on GIT. CD1 mice weighing 30–35 g were used. Carmine (Sigma Chemical Co, St. Louis, MO, USA) was suspended (6% wt/v) in distilled water containing 0.5% methylcellulose and administered by gavage at the dose of 0.3 mL/mouse. Briefly, after 20 min from carmine administration, mice were sacrificed by cervical dislocation and the stomach and small intestine were removed and the omentum was separated, avoiding stretching. The length of the intestine was measured starting from the pyloric sphincter to the ileocecal junction. The distance travelled by the head of the marker was measured and expressed as a percent of the total length of the small intestine. Using this procedure, the marker was consistently found at approximately 50% of the small intestine, 20 min after its administration to naive mice.
20 min later, mice were killed by dislocation cervical and intestines were removed. […] The length of the intestine from the pyloric sphincter to the ileocecal junction and the distance travelled by the carmine front were both measured and recorded. Groups of n = 10 mice were used in each experiment.
Statistical analyses were performed by one-way ANOVA followed by Newman-Keuls post-hoc comparison.

CB2 receptor = target: T1, CB2 receptor (Mus musculus, UniProt P47936); assay: CB2 radioligand binding, [3H]-CP-55,940 competition in mouse spleen homogenate; conditions: [3H]-CP-55,940, mouse spleen homogenate; mean ± standard error, five independent experiments in triplicate; read-out: KiCB2
T1 construct: from tissue; host or cells: mouse (CD1) spleen, membrane homogenate
Description: Affinities at CB1R and CB2R for compounds 1c–j were assessed by competition of [^3H]-CP-55,940 in mouse brain (minus cerebellum) and spleen homogenates, respectively. Radioligand binding experimental procedures previously reported by us were adopted.
(§1) Male CD1 mice weighing 30–35 g were killed by cervical dislocation and the brain (minus cerebellum) and spleen were rapidly removed and frozen. After thawing, tissues were homogenated in 20 vol. (wt/v) of ice-cold TME buffer (50 mM Tris-HCl, 1 mM EDTA and 3.0 mM MgCl2, pH 7.4). The homogenates were centrifuged at 1,086 ×g for 10 min at 4 °C, and the resulting supernatants were centrifuged at 45,000 ×g for 30 min.
[^3H]-CP-55,940 binding was performed using the method previously described by Ruiu et al.. Briefly, the membranes (30–80 µg of protein) were incubated with 0.5–1 nM of [^3H]-CP-55,940 for 1 h at 30 °C in a final volume of 0.5 mL of TME buffer containing 5 mg/mL of fatty acid-free bovine serum albumin. Non-specific binding was estimated in the presence of 1 µM of CP-55,940. All binding studies were performed in disposable glass tubes pre-treated with Sigma-Cote (Sigma Chemical Co., Ltd., Poole, UK), in order to reduce non-specific binding. The reaction was terminated by rapid filtration through Whatman GF/C filters presoaked in 0.5% polyethyleneimine (PEI) using a Brandell 36-sample harvester (Gaithersburg, MD, USA). Filters were washed five times with 4 mL aliquots of ice-cold Tris HCl buffer (pH 7.4) containing 1 mg/mL BSA. The filter bound radioactivity was measured in a liquid scintillation counter (Tricarb 2900, Packard, Meridien, […], USA) with 4 mL of scintillation fluid (Ultima Gold MV, Packard).
(§2) Protein determination was performed by means of a Bradford protein assay using BSA as a standard according to the protocol of the supplier (Bio-Rad, Milan, Italy).
(§3) All experiments were performed in triplicate and results were confirmed in at least five independent experiments. Data from radioligand inhibition experiments were analysed by nonlinear regression analysis of a Sigmoid Curve using Graph Pad Prism program. IC50 values were derived from the calculated curves and converted to Ki values as previously described.

CB1 receptor = target: T2, CB1 receptor (Mus musculus, UniProt P47746); assay: CB1 radioligand binding, [3H]-CP-55,940 competition in mouse brain (minus cerebellum) homogenate; conditions: for Ki: mean ± standard error, five independent experiments in triplicate; for CB1-affinity decrease relative to 1a: compared with 1a (Ki 10.25 nM); for Selectivity KiCB2/KiCB1: ratio of KiCB2 to KiCB1
T2 construct: from tissue; host or cells: mouse (CD1) brain minus cerebellum, membrane homogenate
Description: Radioligand binding experimental procedures previously reported by us were adopted.
as §1
All binding studies were performed in disposable glass tubes pre-treated with Sigma-Cote (Sigma Chemical Co., Ltd., Poole, UK), in order to reduce non-specific binding. The reaction was terminated by rapid filtration through Whatman GF/C filters presoaked in 0.5% polyethyleneimine (PEI) using a Brandell 36-sample harvester (Gaithersburg, MD, USA). Filters were washed five times with 4 mL aliquots of ice-cold Tris HCl buffer (pH 7.4) containing 1 mg/mL BSA. The filter bound radioactivity was measured in a liquid scintillation counter (Tricarb 2900, Packard, Meridien, […], USA) with 4 mL of scintillation fluid (Ultima Gold MV, Packard).
as §2, §3

C57Bl6/J mice = assay: Acute food intake in fasted mice; type: in vivo, mouse
Description: To further evaluate the potential application of these CB1 antagonists in the control of food intake and in obesity treatment, compound 1b was preliminarily tested in comparison with SR141716A in an acute in vivo assay using C57Bl6/J mice. The evaluation was carried out according to the animal model previously reported by Di Marzo [19].
It is well known that CB1Rs mediate the hyperphagic effect of cannabinoids. […] To test the potential anti-obesity effect of the new CB1 antagonist 1b we performed food intake experiments according to the acute animal model described by Di Marzo [19]. For a comparison we also reported the results concerning the assumed lead compound of this new series, derivative 1a.
A widely described method was used for the screening of the new CB1 antagonists in the food intake animal model. C57Bl6/J mice weighing 20–25 g were housed individually on a reverse light-dark cycle in a room with temperature and humidity control. The mice were fasted for 18 h before testing. Vehicle or CB1 antagonists were administered by an intraperitoneal injection and 15 min later a known amount of food was presented. Food pellets were weighed after each hour for three hours. Rimonabant was used as internal positive control in order to evaluate the efficacy of each compound. All animal experiments were performed according to the UE (CEE N° 86/609) guidelines for the care and use of experimental animals.
Two-way ANOVA with Bonferroni post-testing was performed using GraphPad Prism version 5.00 for Windows (GraphPad Software, San Diego CA, USA).

[1] = system: P-ERK 1/2 expression in mouse neuroblastoma N1E-115 cells (CB1Rs); assay: P-ERK 1/2 expression in N1E-115 cells (Western blot); type: cell-based; conditions: 10 min exposure
Description: Agonist or antagonist activity of the new derivatives towards CB1Rs were assayed through in vitro testing based on the determination of phosphorylated ERK 1/2 (P-ERK 1/2) expression in a mouse neuroblastoma N1E-115 cell line. As previously reported, this cell line expresses CB1Rs but not CB2Rs; moreover, it has been shown that the exposure of N1E-115 cells to the cannabinoid agonists arachidonyl-2-chloroethylamide (ACEA) and WIN 55-212,2 induces a rapid phosphorylation and activation of the ERK 1/2. The addition of CB1 antagonists as SR141716A abolishes the response induced by the cannabinoid agonists.
N1E-115 cells were grown at 37 °C in humidified 5% CO2 in Dulbecco’s Modified Eagle’s Medium (high glucose supplemented with 10% fetal bovine serum (FBS), 1 μg/mL penicillin-streptomycin, 2 mM L-glutamine, 2.5 μg/mL amphotericin B and 50 μg/mL gentamicin). […] Tested and reference compounds were dissolved in Dulbecco’s phosphate buffered saline (D-PBS) with 1% DMSO and treatments were performed in a volume of 10 μL/mL of cell suspension.
P-ERK 1/2 expression was determined through Western blot analysis according to the previously reported procedure. One-way ANOVA was performed as a statistical analysis using the Graph Pad Prism program (San Diego, CA, USA).
The same procedure was adopted to determine CB1 specific antagonism for compounds which had no effect on P-ERK 1/2 expression themselves. In these last cases, WIN55,212-2 at 25 nM as a reference cannabinoid agonist agent and the new CB1 antagonists at 150–200 nM were employed.

[2] = target: T3, CB1Rs of mouse vas deferens (Mus musculus, UniProt P47746); assay: Isolated organ assay: electrically evoked contractions of mouse vas deferens; conditions: cumulative concentration-response curve
T3 construct: naturally expressed prejunctional neuronal CB1Rs; from tissue; host or cells: isolated vas deferens of male albino CD1 mice
Description: Vas deferens was obtained from male albino CD1 mice weighing 30 to 40 g. Tissue was mounted in a 10 mL organ bath at an initial tension of 0.5 g using a previously described method [16]. The bath contained Krebs-Henseleit solution (118.2 mM NaCl, 4.75 mM KCl, 1.19 mM KH2PO4, 25.0 mM NaHCO3, 11.0 mM glucose, and 2.54 mM CaCl2), which was kept at 37 °C and bubbled with 95% O2 and 5% CO2. Isometric contractions were evoked by stimulation with 0.5 sec trains of three pulses of 110% maximal voltage (train frequency, 0.1 Hz; pulse duration, 0.5 msec) through platinum electrodes attached to the upper end of each bath and a stainless-steel electrode attached to the lower end. Stimuli were generated using a Grass S88K stimulator and then amplified (multiplexing pulse booster 316S; Ugo Basile, Comerio, Italy) and divided to yield separate outputs to four organ baths. Contractions were monitored using a computer equipped with a data recording and analysis system (PowerLab 400) linked via preamplifiers (QuadBridge) to an F10 transducer (Biological Instruments, Besozzo, Italy). Each tissue was subject to several periods of stimulation. […] The stimulator was then switched off for 15 min, after which the tissues were subjected to further periods of stimulation each lasting 5 min and separated by a stimulation-free period. The compounds to be assayed were added once the contractile responses to electrical stimulation were reproducible. Preparations were exposed to cumulative increasing concentrations of the compounds to obtain concentration-response curves in the case of CB1 agonist (and partial agonist) compounds. […] Inhibition of the electrically evoked twitch response was expressed in percentage terms and was calculated by comparing the amplitude of the twitch response after each addition of the agonist compound (alone or in the presence of a potential CB1 antagonist) with the amplitude detected in absence of the compounds to be assayed (basal value). The pA2 values for competitive antagonism were calculated by Schild regression analysis [37]. Data were plotted as log antagonist concentration versus log [(antagonist concentration/agonist concentration)-1].

[3] = [3H]-CP 55,940, mouse brain (minus cerebellum) homogenate, read-out: KiCB1

T2 sequence (P47746 whole entry): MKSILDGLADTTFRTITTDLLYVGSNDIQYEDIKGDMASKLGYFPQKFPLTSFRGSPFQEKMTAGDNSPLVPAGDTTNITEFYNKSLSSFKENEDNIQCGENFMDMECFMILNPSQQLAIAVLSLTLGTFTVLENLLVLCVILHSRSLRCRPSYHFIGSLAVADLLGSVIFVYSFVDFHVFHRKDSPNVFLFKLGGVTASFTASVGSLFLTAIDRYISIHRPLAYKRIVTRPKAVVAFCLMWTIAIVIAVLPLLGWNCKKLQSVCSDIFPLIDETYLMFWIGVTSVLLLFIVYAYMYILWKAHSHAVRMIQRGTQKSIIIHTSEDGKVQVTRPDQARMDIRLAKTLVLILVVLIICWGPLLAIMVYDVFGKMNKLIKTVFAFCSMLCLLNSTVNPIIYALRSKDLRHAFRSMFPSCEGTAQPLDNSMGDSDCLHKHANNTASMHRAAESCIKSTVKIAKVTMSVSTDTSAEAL
T1 sequence (P47936 whole entry): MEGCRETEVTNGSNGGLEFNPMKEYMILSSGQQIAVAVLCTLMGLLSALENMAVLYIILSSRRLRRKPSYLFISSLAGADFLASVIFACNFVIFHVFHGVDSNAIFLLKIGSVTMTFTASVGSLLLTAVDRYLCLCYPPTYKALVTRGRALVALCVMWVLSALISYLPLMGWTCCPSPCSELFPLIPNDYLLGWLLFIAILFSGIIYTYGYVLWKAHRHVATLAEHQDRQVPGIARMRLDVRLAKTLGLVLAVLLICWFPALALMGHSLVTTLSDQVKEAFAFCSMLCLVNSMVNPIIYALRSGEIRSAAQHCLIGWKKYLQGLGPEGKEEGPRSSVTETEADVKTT
T3 sequence (P47746 whole entry): as the sequence (P47746 whole entry) above

| SMILES | Ki (CB2 receptor) [µM] | melting point [°C] | Ki (CB1 receptor; [3]) | CB1-affinity decrease relative to 1a (CB1 receptor) [fold] | also measured |
| --- | --- | --- | --- | --- | --- |
| O=C(NN1CCCC1)c1nn(-c2ccc(Cl)cc2Cl)c2c1CCOc1cc(Cl)ccc1-2 [Compound 1c, 8-Chloro-1-(2,4-dichlorophenyl)-N-pyrrolidin-1-yl-4,5-dihydrobenzo-1H-6-oxa-cyclohepta[1,2-c]pyrazole-3-carbohydrazide] | 4.5 ± 0.5 | 175 | < 0.06 µM and 0.0551 µM | 5.4 | Effect on gastrointestinal transit compared with that of 1b (CD1 mice): Analogue results; Selectivity KiCB2/KiCB1 (CB1 receptor): > 57 |
| O=C(Nc1ccccc1)c1nn(-c2ccc(Cl)cc2Cl)c2c1CCOc1cc(Cl)ccc1-2 [Compound 1f, 8-Chloro-1-(2,4-dichlorophenyl)-N-phenyl-4,5-dihydrobenzo-1H-6-oxa-cyclohepta[1,2-c]pyrazole-3-carboxamide] | 4.12 ± 0.62 | 130 | 0.233 ± 0.033 µM | 23 |  |
| Cc1c(C(=O)NN2CCCCC2)nn(-c2ccc(Cl)cc2Cl)c1-c1ccc(Cl)cc1 [rimonabant, N-piperidinyl-5-(4-chlorophenyl)-1-(2,4-dichlorophenyl)-4-methyl-1H-pyrazole-3-carboxamide, reference compound] |  |  |  |  | Food intake effect over time (C57Bl6/J mice; 10 mg/kg i.p., at 2 h and 3 h): fades away; Observable side effects / behavioural effects (C57Bl6/J mice; 20 mg/kg (highest assayed dosage)): marked behavioural effects |
| COc1ccc(NC(=O)c2nn(-c3ccc(Cl)cc3Cl)c3c2CCOc2cc(Cl)ccc2-3)cc1 [Compound 1i, 8-Chloro-1-(2,4-dichlorophenyl)-N-(p-methoxyphenyl)-4,5-dihydrobenzo-1H-6-oxa-cyclohepta[1,2-c]pyrazole-3-carboxamide] | > 5 | 214 | 0.33 ± 0.045 µM |  |  |
| O=C(NN1CCCCCC1)c1nn(-c2ccc(Cl)cc2Cl)c2c1CCOc1cc(Cl)ccc1-2 [Compound 1d, 8-Chloro-1-(2,4-dichlorophenyl)-N-homopiperidin-1-yl-4,5-dihydrobenzo-1H-6-oxa-cyclohepta[1,2-c]pyrazole-3-carbohydrazide] | 2 ± 0.05 | 137 to 138 | < 0.06 µM and 0.035 µM | 3.5 | Effect on gastrointestinal transit compared with that of 1b (CD1 mice): Analogue results; Selectivity KiCB2/KiCB1 (CB1 receptor): > 57 |
| Cc1ccc(NC(=O)c2nn(-c3ccc(Cl)cc3Cl)c3c2CCOc2cc(Cl)ccc2-3)cc1 [Compound 1h, 8-Chloro-1-(2,4-dichlorophenyl)-N-tolyl-4,5-dihydrobenzo-1H-6-oxa-cyclohepta[1,2-c] pyrazole-3-carboxamide] | > 5 | 181 |  |  | Ki (CB1 receptor; KiCB1, [3H]-CP 55,940, mouse brain (minus cerebellum) homogenate): 0.429 ± 0.049 µM |
| O=C(Nc1ccc(Cl)cc1)c1nn(-c2ccc(Cl)cc2Cl)c2c1CCOc1cc(Cl)ccc1-2 [Compound 1g, 8-Chloro-1-(2,4-dichlorophenyl)-N-(p-chlorophenyl)-4,5-dihydrobenzo-1H-6-oxa-cyclohepta[1,2-c]pyrazole-3-carboxamide] | > 5 | 239 | 0.318 ± 0.036 µM |  |  |
| O=C(Nc1ccc(C(F)(F)F)cc1)c1nn(-c2ccc(Cl)cc2Cl)c2c1CCOc1cc(Cl)ccc1-2 [Compound 1j] | > 5 | 249 to 250 | 0.459 ± 0.057 µM |  |  |
| CC1(C)C2CCC(CNC(=O)c3nn(-c4ccc(Cl)cc4Cl)c4c3CCOc3cc(Cl)ccc3-4)C1C2 (stereo not shown) [Compound 1e, 8-Chloro-1-(2,4-dichlorophenyl)-N-(6,6-dimethyl-bicyclo[3.1.1]hept-2-yl-methyl)-4,5-dihydrobenzo-1H-6-oxa-cyclohepta[1,2-c]pyrazole-3-carboxamide] |  | 142 to 143 |  |  | Concentration up to which a dose response effect on P-ERK 1/2 expression was highlighted ([1]; N1E-115 cells): ≤ 75 nM; Effect on P-ERK 1/2 expression (agonist activity towards CB1) ([1]; compound alone, 1b–d at concentrations up to 1 μM): CB1 agonist activity; Maximum inhibition of the amplitude of electrically-evoked contractions [2]: around 60% |
